Measurements from PMC8998618, “A Pharmacokinetic and Metabolism Study of the TRPC6 Inhibitor SH045 in Mice by LC-MS/MS” (International Journal of Molecular Sciences, 2022).
Several values for one entry are separate records, joined by “and”; a condition that tells them apart may be missing. Equal entries are not always repeated.

Columns and labels:
[1] = appearance of SH045 in urine after i.v. administration; assay type: in vivo, mice; conditions: 20 mg/kg BW i.v.
Description: Mouse renal elimination of SH045 was exploratorily monitored up to their first spontaneous micturition after i.v. administration (20 mg/kg BW). Samples of released urine were assigned to micturition periods of 10–30, 60–80, or 100–120 min following application. Mean urine concentrations of unmetabolized SH045 of 748 ± 31 (n = 3), 1056 ± 104 (n = 3), and 162 ± 17 nM (n = 6), respectively, were recorded.
Via heparin-coated catheters a maximum of 50 µL blood was collected from the tail vein at 0.25, 0.5, 1, 2, 3, 4, 6, 8, or 24 h after administration and immediately centrifuged at 4000× g at 4 °C for 10 min. For repeated administration 20 mg/kg BW SH045 were administered at 8:00 a.m. on five consecutive days, once a day. Blood was taken 1 h and 24 h after drug administration. Tissue samples were harvested from isoflurane-euthanized animals at indicated time points. Mice were transcardially perfused with PBS and dissected tissues were washed to remove remaining blood. Plasma and tissue samples were stored at −80 °C until analysis. Urine was collected by bladder puncture at indicated time points.
For tissue analysis, homogenates (10% in phosphate-buffered saline, PBS) were prepared. Homogenate, plasma, and urine were mixed with IS and extracted with ice-cold ACN, centrifuged, filtered and stored in the autosampler at 6 °C until analysis in duplicates by LC-MS/MS (details in Supplementary Materials SM4).

[2] = NADPH-dependent microsomal conversion, Michaelis-Menten kinetics (MLM); assay type: in vitro ADME, mouse; conditions: MLM 0.5 mg/mL protein, SH045 0.5 to 100 µM, Lineweaver-Burk
Description: For determination of vmax and Michaelis-Menten constant Km of the NADPH-dependent microsomal depletion of SH045, incubations in MLM and HLM were performed. Testosterone instead of SH045 was used as positive control (Supplementary Materials SM6).
Negative controls were obtained by omission of respective components. The overall velocity (v) of degradation was calculated from altered SH045 concentration (∆c) obtained from reduction peak area ratio of SH045 as: v = ∆c/incubation time × concentration of enzyme (nmol/min × mg). Mean maximum rate vmax and Km were calculated using Lineweaver-Burk transformation. […]
The tissue binding of SH045 was analyzed exemplarily in lung, liver and kidney homogenate using ultrafiltration [5]. […] 20 µL of the mixture and the filtrate were analyzed for SH045. […]
Testosterone (10 µM in ACN/DPBS 2/3, v/v) instead of SH045 was used as positive control and analyzed by an appropriate HPLC method with UV detection.
Negative controls contained either no NADPH, no MLM or HLM or none of them. The overall velocity (v) of degradation was calculated from altered SH045 concentration (∆c) obtained from reduction peak area ratio of SH045 as: v = ∆c / incubation time × concentration of enzyme × volume (nmol/ min × mg). Mean maximum rate vmax and Michaelis-Menten constant Km were calculated using Lineweaver-Burk transformation. […]

[3] = system: TRPC3/6 channels of rat pulmonary arterial smooth muscle cells (PASMC); design: method as in PMID 29522264; conditions: cited from earlier work
[4] = tissue homogenate binding by ultrafiltration; assay type: in vitro ADME, mice; conditions: mean ± RSD

urine concentration after 2 h relative to IC50 reported in vitro [1]: about 30 fold | mean urine concentration of unmetabolized SH045 ([1]; micturition period 10–30 min): 748 ± 31 nM | mean urine concentration of unmetabolized SH045 ([1]; micturition period 60–80 min): 1056 ± 104 nM | mean urine concentration of unmetabolized SH045 ([1]; micturition period 100–120 min): 162 ± 17 nM and 160 nM | vmax [2]: 9.8 ± 0.8 nmol/min/mg | Km at 10 min ([2]; mouse, mouse liver microsomes): 48.4 ± 3.9 µM | Tissue binding ([4]; kidney homogenate 1:10, SH045 1 µg/mL, 30 min): 97.6 ± 0.9% | Tissue binding ([4]; kidney homogenate 1:10, SH045 1 µg/mL, 60 min): 97.8 ± 0.4% | Tissue binding ([4]; kidney homogenate 1:10, SH045 1 µg/mL, 120 min): 98.3 ± 0.2% | Tissue binding ([4]; kidney homogenate 1:10, SH045 1 µg/mL, 240 min): 98.3 ± 0.1% | Tissue binding ([4]; liver homogenate 1:10, SH045 2 µg/mL, 30 min): 99.4 ± 0.1% | Tissue binding ([4]; liver homogenate 1:10, SH045 2 µg/mL, 60 min): 97.1 ± 1.0% | Tissue binding ([4]; liver homogenate 1:10, SH045 2 µg/mL, 120 min): 99.0 ± 0.1% | Tissue binding ([4]; liver homogenate 1:10, SH045 2 µg/mL, 240 min): 97.8 ± 0.9% | Tissue binding ([4]; lung homogenate 1:10, SH045 50 µg/mL, 30 min): 93.5 ± 1.2% | Tissue binding ([4]; lung homogenate 1:10, SH045 50 µg/mL, 60 min): 94.9 ± 0.1% | Tissue binding ([4]; lung homogenate 1:10, SH045 50 µg/mL, 120 min): 97.8 ± 0.5% | Tissue binding ([4]; lung homogenate 1:10, SH045 50 µg/mL, 240 min): 97.4 ± 0.8%
SMILES: C=C[C@@](C)(O)CC[C@H]1C(=C)C[C@H](OC(=O)NC)[C@H]2C(C)(C)CCC[C@]12C [SH045, (1S,4S,4aR,8aS)-4-((S)-3-Hydroxy-3-methylpent-4-en-1-yl)-4a,8,8-trimethyl-3-methylenedecahydronaphthalen-1-yl methylcarbamate]
OAG-induced Ca^2+ entry [3]: inhibition
